Measured values taken from patent publication US20230145764A1, “BLOOD-BASED TUMOR MUTATION BURDEN PREDICTS OVERALL SURVIVAL IN NSCLC” (MEDIMMUNE, LLC, priority 2018, published 2023).

Experiments:
mNSCLC = assay: MYSTIC ctDNA mutation analysis (STK11, KEAP1, ARID1A), overall survival by mutation status; type: in vivo, human
Protocol: This example investigated associations between selected mutations and survival outcomes. Circulating tumour DNA from baseline plasma specimens was profiled using the GuardantOMNI platform. Samples were available from 1003 patients (89.7% of ITT population). 943 samples were mutation-evaluable. Survival outcomes were analysed in patients with or without non-synonymous somatic mutations in STK11, KEAP1, or ARID1A, or KRAS.

xenograft model = settings: via a T-cell dependent mechanism; cited from earlier work
metastatic NSCLC [1] = assay: MYSTIC phase 3 study, efficacy by blood TMB (GuardantOMNI) or tissue TMB (FoundationOne) subgroup; type: in vivo, human
Protocol: (§1) Patients continued treatment until objective disease progression (according to RECIST v1.1), development of an adverse event (AE) that necessitated treatment discontinuation, or withdrawal of consent.
Blood TMB was evaluated using the GuardantOMNI next-generation sequencing platform (Guardant Health, Redwood City, Calif., USA) comprised of 500 genes (FIG. 1).
The OMNI TMB algorithm incorporates somatic single nucleotide variants (SNVs), short insertions/deletions (indels), copy number amplifications and fusions, and is optimized to calculate TMB on blood samples with low cell-free circulating tumor DNA content (Merck Sharp & Dohme. Keytruda® (pembrolizumab) Summary of Product Characteristics. Updated March 2019. Available at: https://www.medicines.org.uk/emc/product/6947/smpc (last accessed May 1, 2019); Reck et al., N. Engl. J. Med. 375(19): 1823-33 (2016)). Both synonymous and nonsynonymous SNVs and indels were included, with removal of those with low shedding values, low diversity, and associations with clonal hematopoiesis, germline and oncogenic driver or drug resistance mechanisms. Tissue TMB was evaluated using the FoundationOne tissue next-generation sequencing platform (Foundation Medicine, Cambridge, Mass., USA). The algorithm has been described previously (Merck Sharp & Dohme. Keytruda® (pembrolizumab) prescribing information. Updated April 2019. Available at: https://www.merck.com/product/usa/pi_circulars/k/keytruda/keytruda_pi.pdf (last accessed May 1, 2019)).
(§2) Efficacy was analyzed on an intention-to-treat (ITT) basis, including all randomized patients or subsets of this population based on PD-L1 expression or TMB levels. Safety analyses included all patients who received at least one dose of study treatment (as-treated population).
(§3) Odds ratios and 95% CI for comparing ORR between treatment groups were calculated using a logistic regression model, adjusted for the same factors as PFS and OS. Prespecified TMB analysis was performed using an unstratified log-rank test, with HRs and 95% Cis estimated using a Cox proportional hazards model.

PD-L1 = PD-L1 (Homo sapiens, UniProt Q9NZQ7); settings: in vitro; cited from earlier work
[2] = MYSTIC phase 3 study, safety (adverse events, as-treated population); settings: in vivo
Protocol: as §1
(§4) Tumor response was assessed by BICR using RECIST v1.1, with imaging performed every 6 weeks for the first 48 weeks, then every 8 weeks, until confirmed disease progression. Patients were followed for survival. AEs were graded according to National Cancer Institute Common Terminology Criteria for Adverse Events version 4.03.
as §2

metastatic NSCLC [3] = assay: MYSTIC phase 3 study, efficacy (OS, PFS, tumor response) in ITT population and PD-L1 expression subgroups; type: in vivo, human; settings: for ORR, %: BICR per RECIST v1.1
From the text: Adult patients with Stage IV NSCLC were eligible provided they had not previously received systemic therapy for advanced/metastatic NSCLC, had Eastern Cooperative Oncology Group performance status 0-1, measurable disease according to Response Evaluation Criteria in Solid Tumors version 1.1 (RECIST v1.1) (Chaft et al., Cancer Res. 78(13 Suppl) (abstr. CT113) (2018)), and known tumor PD-L1 expression status prior to randomization. Patients with sensitizing EGFR mutations or ALK rearrangements, and those with symptomatic, unstable brain metastases were excluded.
as §1
Investigation of the relationship between biomarkers, including TMB, and clinical outcomes were also determined.
PD-L1 expression was evaluated using multiple cut-offs at a central laboratory using the VENTANA PD-L1 (SP263) immunohistochemistry (IHC) assay (Ventana Medical Systems, Tucson, Ariz., USA) (Rebelatto et al., Diagn. Pathol. 11(1): 95 (2016)). Tumor samples obtained within 3 months prior to screening were permitted.
as §4, §2
To control the type I error at 5% (two-sided), a hierarchical multiple testing procedure with gatekeeping strategy was used across endpoints, analysis populations, and treatment regimens. The primary PFS analysis was performed using a stratified log-rank test adjusting for histology, with hazard ratio (HR) and 99.5% confidence interval (CI) estimated using a Cox proportional hazards model. […] Survival curves were generated using the Kaplan-Meier method.
as §3

[4] = test system: natural killer (NK) ADCC activity; settings: cited from earlier work
Fc receptors = settings: cited from earlier work
human CTLA-4 = target: T1, human CTLA-4 (Homo sapiens, UniProt P16410); settings: specific for human CTLA-4; cited from earlier work
T1 sequence (P16410 36-223): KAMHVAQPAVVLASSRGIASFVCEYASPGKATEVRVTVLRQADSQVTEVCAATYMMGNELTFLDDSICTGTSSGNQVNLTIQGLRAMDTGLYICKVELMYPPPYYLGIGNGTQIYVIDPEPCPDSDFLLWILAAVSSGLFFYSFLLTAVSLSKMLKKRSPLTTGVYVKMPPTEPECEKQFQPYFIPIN

Chain of PD-L1 (Q9NZQ7 19-290): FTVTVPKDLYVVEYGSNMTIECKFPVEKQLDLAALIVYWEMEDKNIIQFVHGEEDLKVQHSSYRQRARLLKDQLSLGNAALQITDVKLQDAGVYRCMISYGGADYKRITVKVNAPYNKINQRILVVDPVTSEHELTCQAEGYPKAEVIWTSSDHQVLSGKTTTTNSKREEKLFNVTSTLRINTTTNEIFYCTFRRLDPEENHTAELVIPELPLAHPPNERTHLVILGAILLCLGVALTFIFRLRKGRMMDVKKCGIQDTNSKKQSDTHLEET

durvalumab
median OS (mOS) (mNSCLC; patients with ARID1Am): 8.6 months
median OS (mOS) (mNSCLC; patients with ARID1Awt): 13.7 months
median OS (mOS) (mNSCLC; patients with KEAP1m): 7.6 months
median OS (mOS) (mNSCLC; patients with KEAP1wt): 14.6 months
median OS (mOS) (mNSCLC; patients with STK11m): 10.3 months
median OS (mOS) (mNSCLC; patients with STK11wt): 13.3 months
tumor growth in a xenograft model (xenograft model): inhibits tumor growth
ORR, % (metastatic NSCLC [1]; Blood TMB <20 mut/Mb): (20.6) %
Remaining in response (%) at 6 months (metastatic NSCLC [1]; Blood TMB <20 mut/Mb): 64.0%
Remaining in response (%) at 12 months (metastatic NSCLC [1]; Blood TMB <20 mut/Mb): 59.1%
ORR, % (metastatic NSCLC [1]; Blood TMB ≥20 mut/Mb): (29.9) %
Remaining in response (%) at 6 months (metastatic NSCLC [1]; Blood TMB ≥20 mut/Mb): 86.5%
Remaining in response (%) at 12 months (metastatic NSCLC [1]; Blood TMB ≥20 mut/Mb): 80.3%
HR for death versus chemotherapy (metastatic NSCLC [1]; Tissue TMB ≥10 mut/Mb): 0.70
median OS (metastatic NSCLC [1]; Tissue TMB ≥10 mut/Mb): 18.6 months
median OS (metastatic NSCLC [1]; bTMB ≥20 mut/Mb): 12.6 months
unadjusted HR for death vs. chemotherapy (metastatic NSCLC [1]; bTMB ≥20 mut/Mb): 0.72
PD-L1-mediated suppression of human T-cell activation (PD-L1): relieve PD-L1-mediated suppression
All-grade treatment-related AEs (TRAEs), % of patients [2]: 54.2%
Immune-mediated AEs of grade 3 or 4, % of patients [2]: 4.1%
Immune-mediated AEs, % of patients [2]: 13.6%
Rates of grade ≥3 TRAEs [2]: 14.9%
TRAEs leading to discontinuation [2]: 5.4%
Treatment-related deaths, % [2]: 0.5%
Treatment-related deaths, patients [2]: 2 patients
Hazard ratio (95% CI) for death compared with chemotherapy (metastatic NSCLC [3]; ITT population): 0.96
Median overall survival, months (95% CI) (metastatic NSCLC [3]; ITT population): 12.3 months
Hazard ratio (95% CI) for death compared with chemotherapy (metastatic NSCLC [3]; PD-L1 TC <1%): 1.18
Median overall survival, months (95% CI) (metastatic NSCLC [3]; PD-L1 TC <1%): 10.1 months
Hazard ratio (95% CI) for death compared with chemotherapy (metastatic NSCLC [3]; PD-L1 TC ≥1%): 0.88
Median overall survival, months (95% CI) (metastatic NSCLC [3]; PD-L1 TC ≥1%): 14.6 months
24-month OS rate (metastatic NSCLC [3]; PD-L1 TC ≥25%): 38.3%
Best objective response, Complete response, % (metastatic NSCLC [3]; PD-L1 TC ≥25%): (0.6) %
Best objective response, Not evaluable, % (metastatic NSCLC [3]; PD-L1 TC ≥25%): (1.2) %
Best objective response, Partial response, % (metastatic NSCLC [3]; PD-L1 TC ≥25%): (35.0) %
Best objective response, Progressive disease, % (metastatic NSCLC [3]; PD-L1 TC ≥25%): (32.5) %
Best objective response, Stable disease ≥ 6 weeks, % (metastatic NSCLC [3]; PD-L1 TC ≥25%): (30.7) %
HR for death vs. chemotherapy (metastatic NSCLC [3]; PD-L1 TC ≥25%): 0.76
Remaining in response (%) at 6 months (metastatic NSCLC [3]; PD-L1 TC ≥25%): 66.9%
Remaining in response (%) at 12 months (metastatic NSCLC [3]; PD-L1 TC ≥25%): 61.3%
difference in PFS versus chemotherapy group (metastatic NSCLC [3]; PD-L1 TC ≥25%): no statistically significant difference
median OS (metastatic NSCLC [3]; PD-L1 TC ≥25% (primary analysis population)): 16.3 months
ORR, % (metastatic NSCLC [3]; PD-L1 TC ≥25%): 35.6%
ORR, % (metastatic NSCLC [3]; PD-L1 TC ≥25%, listed as Durvalumab Monotherapy): (35.6) %
Median DOR, months (95% CI) (metastatic NSCLC [3]; PD-L1 TC ≥25%, Kaplan-Meier, NR = not reached): NR (9.7-NR)
Hazard ratio (95% CI) for death compared with chemotherapy (metastatic NSCLC [3]; PD-L1 TC ≥25-49%): 0.78
Median overall survival, months (95% CI) (metastatic NSCLC [3]; PD-L1 TC ≥25-49%): 11.1 months
Hazard ratio (95% CI) for death compared with chemotherapy (metastatic NSCLC [3]; PD-L1 TC ≥50%): 0.76
Median overall survival, months (95% CI) (metastatic NSCLC [3]; PD-L1 TC ≥50%): 18.3 months
Estimated odds ratio vs. chemotherapy (95% CI) (metastatic NSCLC [3]; in vivo): 0.91
Number of events/patients (metastatic NSCLC [3]; overall survival, ITT population): 278/374
Number of patients (metastatic NSCLC [3]; overall survival, PD-L1 TC <1%): 84/95
Number of patients (metastatic NSCLC [3]; overall survival, PD-L1 TC ≥1%): 194/279
Number of patients (metastatic NSCLC [3]; overall survival, PD-L1 TC ≥25-49%): 33/45
Number of patients (metastatic NSCLC [3]; overall survival, PD-L1 TC ≥50%): 75/118

tremelimumab
induction of natural killer (NK) ADCC activity [4]: does not induce
specific binding to Fc receptors (Fc receptors): minimal specific binding
cross-reactivity to related human proteins (human CTLA-4): no cross-reactivity
